Data reported in patent US3991187A, “Medicinal compositions and methods of use involving phosphoric acid esters” (Aktiebolaget Leo, priority 1971, dated 1976).

Columns and labels:
[1] = test system: prostaglandins E1, E2 F1α and F2α; test: PG-inhibitory effect on the isolated gerbil colon; assay type: cell-based, Gerbils (Meriones unguiculatus); conditions: gerbil colon
Experimental: The PG-inhibitory effect of esters of the present invention on the gerbil colon are determined using the general technique described by Eakins, Miller & Karim (J. Pharm. Exp. Ther. 176:441, 1971). Gerbils (Meriones unguiculatus) of own breed, both sexes, weighing 50-80 g are used. The animal is stunned, colon ascendens immediately removed, and a 2-3 cm piece mounted in a 6 ml bath containing a modified de Jalon solution at 28° C and continuously oxygenated. Contractions of the organ are registered either isotonically or isometrically. When testing the inhibitory effect of a compound this is added to the bath 2 min before the addition of prostaglandin. […] Several concentrations of each antagonist are used.

[2] = test system: Slow Reacting Substance (SRS); test: antagonism to Slow Reacting Substance on the isolated guinea-pig ileum (Mathe & Strandberg); assay type: cell-based
Experimental: The antagonism to Slow Reacting Substance (SRS) is determined on the isolated guinea-pig ileum as described by Mathe & Strandberg (Acta physiol. scand. 82:460, 1971). Purified SRS is obtained from cat paws perfused with compound 48/80 (Strandberg & Uvnas: Acta physiol. scand. 82:358, 1971). Sodium bis(4-(3-oxo-3-(2,4,6-trihydroxyphenyl)propyl)phenyl) phosphate was tested in this system in several concentrations.

[3] = test system: PGE1; test: prostaglandin-stimulated glycolysis of the prepubertal ovary (lactic acid production); assay type: cell-based, rats; conditions: compared with the compound giving 50% reduction at 50-100 μg/ml
Experimental: The action of esters of the present invention on the prostaglandin-stimulated glycolysis of the prepubertal ovary is investigated. The method used has been described in detail by Perklev & Ahren (Life Sciences Part I, 10:1387, 1971). In these experiments ovaries from prepubertal rats are removed and placed in Erlenmeyer flasks containing compounds of this invention dissolved in Krebs biocarbonate buffer. After that the ovaries have been preincubated during 60 min. at 37° C in this medium, they are blotted on filter paper and then washed for 2 min. in plain buffer. The ovaries are then transferred to a new incubation medium containing prostaglandins (PG) dissolved in Krebs bicarbonate buffer and incubated at 37° C for 2 hrs with continuous shaking. The ovarian glycolysis is then determined by measuring the concentration of lactic acid in the incubation medium. When polyphloretin phosphate (PPP) is present in the preincubation medium in a concentration of 500 μg/ml, the subsequent ovarian lactic acid production produced by PGE1 is reduced to about 50% of that obtained with ovaries preincubated in plain buffer. When sodium bis(4-(3-(2,4,6-trihydroxyphenyl)propyl)phenyl)phosphate is investigated in the same experimental system, a 50% reduction of the lactate production is seen when only 50-100 μg/ml of the compound is present in the preincubation medium.

Structure (SMILES)	selective inhibitory effects compared with PPP [1]	inhibition of SRS [2]	prostaglandin inhibiting activity [3]
CCN(CC)c1ccc(CCC(=O)c2cc(C)c(OP(=O)([O-])Oc3c(C)cc(C(=O)CCc4ccc(N(CC)CC)cc4)cc3C)c(C)c2)cc1.[Na+] [sodium bis(4-(3-(4-diethylaminophenyl)propionyl)-2,6-dimethylphenyl) phosphate]	equal to or superior to that of PPP	–	–
O=C(CCc1ccc(OP(=O)([O-])Oc2ccc(CCC(=O)c3ccccc3O)cc2)cc1)c1ccccc1O.[Na+] [sodium bis(4-(3-(2-hydroxyphenyl)-3-oxopropyl)phenyl)phosphate]	equal to or superior to that of PPP	inhibit SRS	–
O=C([O-])COc1cccc(C(=O)CCc2ccc(OP(=O)([O-])Oc3ccc(CCC(=O)c4cccc(OCC(=O)[O-])c4)cc3)cc2)c1.[Na+].[Na+].[Na+] [trisodium bis(4-(3-(3-(carboxylatomethoxy)phenyl)-3-oxopropyl)-phenyl) phosphate]	equal to or superior to that of PPP	inhibit SRS	same order
CCN(CC)c1ccc(CCC(=O)c2cccc(OP(=O)([O-])Oc3cccc(C(=O)CCc4ccc(N(CC)CC)cc4)c3)c2)cc1.[Na+] [sodium bis(3-(3-(4-diethylaminophenyl)propionyl)phenyl) phosphate]	equal to or superior to that of PPP	–	–
CCN(CC)c1ccc(C=C(C(=O)c2ccc(OP(=O)([O-])Oc3ccc(C(=O)C(=Cc4ccc(N(CC)CC)cc4)c4ccc(C)cc4)c(OC)c3)cc2OC)c2ccc(C)cc2)cc1.[Na+] [sodium bis(4-(3-(4-diethylaminophenyl)-2-(4-methylphenyl)acryloyl)-3-methoxyphenyl) phosphate]	equal to or superior to that of PPP	–	–
COc1ccc(CCC(=O)c2cccc(OP(=O)([O-])Oc3cccc(C(=O)CCc4ccc(OC)c(CN(C)C)c4)c3)c2)cc1CN(C)C.[Na+] [sodium bis(3-(3-(3-dimethylaminomethyl-4-methoxyphenyl)propionyl)phenyl) phosphate]	equal to or superior to that of PPP	–	–
O=C([O-])Cc1ccc(C(=O)CCc2cccc(OP(=O)([O-])Oc3cccc(CCC(=O)c4ccc(CC(=O)[O-])cc4)c3)c2)cc1.[Na+].[Na+].[Na+] [trisodium bis(3-(3-(4-carboxylatomethylphenyl)-3-oxopropyl)phenyl) phosphate]	equal to or superior to that of PPP	inhibit SRS	same order
Nc1cccc(C(=O)CCc2ccc(OP(=O)(O)Oc3ccc(CCC(=O)c4cccc(N)c4)cc3)cc2)c1 [sodium bis(4-(3-aminophenyl)-3-oxypropyl)phenyl) phosphate]	equal to or superior to that of PPP	–	–
O=C(CCc1cccc(OP(=O)([O-])Oc2cccc(CCC(=O)c3ccccc3O)c2)c1)c1ccccc1O.[Na+] [sodium bis(3-(3-(2-hydroxyphenyl)-3-oxopropyl)phenyl) phosphate]	equal to or superior to that of PPP	inhibit SRS	–
O=C(CCc1cccc(OP(=O)([O-])Oc2cccc(CCC(=O)c3c(O)cc(O)cc3O)c2)c1)c1c(O)cc(O)cc1O.[Na+] [sodium bis(3-(3-(2,4,6-trihydroxyphenyl)-3-oxopropyl)phenyl) phosphate]	equal to or superior to that of PPP	inhibit SRS	same order
O=C(CCc1cccc(OP(=O)([O-])Oc2cccc(CCC(=O)c3ccc(O)cc3O)c2)c1)c1ccc(O)cc1O.[Na+] [sodium bis(3-(3-(2,4-dihydroxyphenyl)-3-oxopropyl)phenyl) phosphate]	equal to or superior to that of PPP	inhibit SRS	same order
Nc1ccccc1C(=O)CCc1cccc(OP(=O)([O-])Oc2cccc(CCC(=O)c3ccccc3N)c2)c1.[Na+] [sodium bis(3-(3-(2-aminophenyl)-3-oxopropyl)phenyl) phosphate]	equal to or superior to that of PPP	–	–
COc1ccc(C(=Cc2ccc(C(=O)[O-])cc2)C(=O)c2ccc(OP(=O)([O-])Oc3ccc(C(=O)C(=Cc4ccc(C(=O)[O-])cc4)c4ccc(OC)cc4)c(OC)c3)cc2OC)cc1.[Na+].[Na+].[Na+] [trisodium bis(4-(3-(4-carboxylatophenyl)-2-(4-methoxy-phenyl)-acryloyl)-3-methoxyphenyl) phosphate]	equal to or superior to that of PPP	inhibit SRS	same order
Nc1ccccc1C(=O)CCc1ccc(OP(=O)([O-])Oc2ccc(CCC(=O)c3ccccc3N)cc2)cc1.[Na+] [sodium bis(4-(3-(2-aminophenyl)-3-oxopropyl)phenyl) phosphate]	equal to or superior to that of PPP	–	–
COc1cc(OP(=O)([O-])Oc2ccc(C(=O)CCc3ccc(N)cc3)c(OC)c2)ccc1C(=O)CCc1ccc(N)cc1.[Na+] [sodium bis(4-(3-(4-aminophenyl)propionyl)-3-methoxyphenyl) phosphate]	equal to or superior to that of PPP	–	–
Cc1cc(OP(=O)([O-])Oc2ccc(CCC(=O)c3ccccc3O)c(C)c2)ccc1CCC(=O)c1ccccc1O.[Na+] [sodium bis(4-(3-(2-hydroxyphenyl)-3-oxopropyl)-3-methylphenyl) phosphate]	equal to or superior to that of PPP	inhibit SRS	–
COC(=O)Cc1ccc(C(=O)CCc2cccc(OP(=O)([O-])Oc3cccc(CCC(=O)c4ccc(CC(=O)OC)cc4)c3)c2)cc1.[Na+] [sodium bis(3-(3-(4-methoxycarbonylmethylphenyl)-3-oxo-propyl)phenyl) phosphate]	equal to or superior to that of PPP	–	–
Nc1ccc(C(=O)CCc2ccc(OP(=O)(O)Oc3ccc(CCC(=O)c4ccc(N)cc4)cc3)cc2)cc1 [sodium bis(4-(3-(4-aminophenyl)-3-oxopropy)phenyl) phosphate]	equal to or superior to that of PPP	–	–
CN(C)C(=O)Cc1ccc(C(=O)CCc2cccc(OP(=O)([O-])Oc3cccc(CCC(=O)c4ccc(CC(=O)N(C)C)cc4)c3)c2)cc1.[Na+] [sodium bis(3-(3-(4-(N,N-dimethylcarbamoylmethyl)phenyl)-3-oxopropyl)phenyl)phosphate]	equal to or superior to that of PPP	–	–
O=C(C=Cc1ccc(O)cc1)c1c(O)cc(OP(=O)([O-])Oc2cc(O)c(C(=O)C=Cc3ccc(O)cc3)c(O)c2)cc1O.[Na+] [sodium bis(3,5-dihydroxy-4-(3-(4-hydroxyphenyl)-acryloyl)phenyl) phosphate]	–	inhibit SRS	same order
COc1cc(CCC(=O)c2cccc(OP(=O)([O-])Oc3cccc(C(=O)CCc4ccc(O)c(OC)c4)c3)c2)ccc1O.[Na+] [sodium bis(3-(3-(4-hydroxy-3-methoxyphenyl)propionyl)phenyl) phosphate]	equal to or superior to that of PPP	inhibit SRS	–
